System: live bacteria
Assay: Biocide efficiency, fluorescence detection of ATP, percentage kill / viable bacteria
Assay type: cell-based
Conditions: for biocidal efficiency in conjunction with biocide 4: 120 ppm corrosion inhibitor + 100 ppm biocide 4 (glutaraldehyde); for biocidal efficiency of the corrosion inhibitor by itself (viable microorganisms): 120 ppm corrosion inhibitor alone
Protocol: Biocidal efficiency of the biocide and biocide in conjunction with corrosion inhibitors were analyzed using fluorescence to indirectly detect the amount of ATP in a given sample. ATP provides a direct correlation to live bacteria (1fg of ATP=1 cell). Through a standard curve, it is the possible to translate the amount of ATP in a given sample to the number of cells/mL in a given sample. Percentage kill was calculated by normalizing the detected bacterial numbers in a biocide or a biocide and corrosion inhibitor treated sample to untreated sample.

Substance | biocidal efficiency in conjunction with biocide 4 | biocidal efficiency of the corrosion inhibitor by itself (viable microorganisms)
2-hydroxylethyl-N-methylbutane-1-sulphonamide | does not have any biocidal properties | does not have any biocidal properties
Cocoamphodiproprionate sodium salt | modest increase in the biocidal properties of biocide 4 | not efficient in reducing the number of viable microorganisms by itself
